“Also recorded” adds a separate entry of the source. Where no end group is shown, it is not given here.
Key:
TGR342 [1] = molecular target: T1, TGR342 (Homo sapiens, UniProt Q969V1); assay: aequorin luminescence assay of intracellular calcium mobilization, TGR342-transfected cells; format: cell-based; conditions: for TGR342 agonist activity at 1 μM / TGR342 agonist activity of MCH-related peptides: FIG. 5; for effect on intracellular calcium levels (peptide library screen): peptides at 1 μM, HEK293 or CHO cells co-transfected with pEF6-V5/TGR342 and pcDNA3/AEQ; for TGR342 agonist activity of MCH-related peptides: concentration not given
T1 construct: The full-length TGR342 cDNA was cloned by; V5 (known only from the vector name pEF6-V5); expressed in transfected cells; host or cells: HEK293 and CHO cells, transient
Procedure: HEK293 and CHO cells were transiently co-transfected with pEF6-V5/TGR342 and pcDNA3/AEQ (expressing aequorin). After 24 hours of incubation, the transfected cells were treated for one hour with serum free medium containing 2 μM coelenterazine f (Molecular Probes). The cells were then collected in the assay buffer HBSS (Hanks' Balanced Saline Solution containing 10 mM hepes and 0.1% BSA). Thereafter, the transfected cells were stimulated with the peptides at a concentration of 1 μM and the kinetics of […] from the cells was recorded with a microplate luminometer (EG & G BERTHOLT).

TGR342 [2] = molecular target: T1, TGR342; assay: [^125I]-MCH binding to membranes of TGR342-transfected HEK293 cells; conditions: inhibited by excess unlabeled MCH (data not shown)
TGR342 [3] = molecular target: T1, TGR342; assay: Ca^2+ response (aequorin assay) with or without pertussis toxin, TGR342-transfected cells; format: cell-based
Procedure: (§1) The Ca^2+ responses were determined with the aequorin assay. Relative luminescence is expressed as the fold-luminescence of that from the cells treated with the highest cocnetration of the ligand without PTX treatment.
(§2) LPA and ADP, which stimulate Ca^2+ increase through endogenous Gi and Gq receptors, respectively (see, e.g., Moolenaar, Ann. N. Y Acad. Sci. 905:1-10, 2000; Fields et al., Biochem. J. 321:561-571, 1997), were tested as controls. As expected, LPA-induced Ca^2+ response was PTX sensitive while the ADP-induced response was resistant (FIG. 7).

MCHR1 [4] = molecular target: T2, MCHR1 (Homo sapiens, UniProt Q99705); assay: Ca^2+ response (aequorin assay) with or without pertussis toxin, MCHR1-transfected cells; format: cell-based; conditions: MCH stimulation; 100 ng/ml PTX pretreatment for 16 hr
Procedure: as §1, §2

TGR342 [5] = molecular target: T1, TGR342; assay: inositol phosphate production in TGR342-transfected cells with or without PTX; format: cell-based
MCHR1 [6] = molecular target: T2, MCHR1; conditions: stated as known; cited from earlier work
endogenous Gq receptors = assay: Ca^2+ response through endogenous Gq receptors with or without PTX (control); format: cell-based; conditions: HEK293 cells; 100 ng/ml PTX for 16 hr; FIG. 7
Procedure: as §1, §2

[7] = 100 ng/ml PTX pretreatment for 16 hr
[8] = HEK293 (or CHO) cells transfected with pEF6/V5-TGR342

T1 sequence (Q969V1 whole entry): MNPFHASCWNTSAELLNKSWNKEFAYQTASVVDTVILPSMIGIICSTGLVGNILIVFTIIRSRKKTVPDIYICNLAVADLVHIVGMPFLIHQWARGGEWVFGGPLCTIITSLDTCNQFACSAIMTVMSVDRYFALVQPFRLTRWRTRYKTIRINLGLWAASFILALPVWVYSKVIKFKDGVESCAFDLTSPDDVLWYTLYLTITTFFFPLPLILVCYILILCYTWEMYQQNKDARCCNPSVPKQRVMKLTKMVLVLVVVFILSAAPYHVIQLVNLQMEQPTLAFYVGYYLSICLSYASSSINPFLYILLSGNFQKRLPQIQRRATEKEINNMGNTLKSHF
T2 sequence (Q99705 whole entry): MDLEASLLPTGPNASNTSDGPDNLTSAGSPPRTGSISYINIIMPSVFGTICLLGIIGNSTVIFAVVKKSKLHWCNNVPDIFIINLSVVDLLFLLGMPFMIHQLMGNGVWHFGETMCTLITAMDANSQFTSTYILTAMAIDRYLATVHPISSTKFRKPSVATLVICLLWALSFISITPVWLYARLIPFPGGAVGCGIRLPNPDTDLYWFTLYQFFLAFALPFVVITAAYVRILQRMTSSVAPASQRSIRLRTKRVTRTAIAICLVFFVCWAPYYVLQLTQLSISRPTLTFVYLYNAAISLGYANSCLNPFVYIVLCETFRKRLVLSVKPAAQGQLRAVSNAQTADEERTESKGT

Compound: cortistatin-17
- TGR342 agonist activity at 1 μM (TGR342 [1]): None of these peptides exhibited activity

Compound: CSCC[C@@H]1NC(=O)[C@@H](NC(=O)[C@H](CCCNC(=N)N)NC(=O)[C@H](CC(C)C)NC(=O)[C@H](CCSC)NC(=O)[C@H](CC(=O)O)NC(=O)[C@H](Cc2ccccc2)NC(=O)[C@@H](N)CC(=O)O)CSSC[C@@H](C(=O)N[C@@H](Cc2c[nH]c3ccccc23)C(=O)N[C@@H](CCC(N)=O)C(=O)N[C@H](C(=O)O)C(C)C)NC(=O)[C@@H]2CCCN2C(=O)[C@H](CCCNC(=N)N)NC(=O)[C@H](Cc2ccc(O)cc2)NC(=O)[C@H](C(C)C)NC(=O)[C@H](CCCNC(=N)N)NC(=O)CNC(=O)[C@H](CC(C)C)NC1=O [MCH, melanin-concentrating hormone]
- effect on intracellular calcium levels (peptide library screen) (TGR342 [1]): increased intracellular calcium levels
- specificity of binding to TGR342 (TGR342 [2]): specific
- PTX sensitivity of the Ca^2+ response, TGR342 (TGR342 [3]; [7]): insensitive to PTX treatment
- Ca^2+ levels in TGR342-transfected cells (TGR342 [3]; [8]): increased levels
- PTX sensitivity of the Ca^2+ response, MCHR1 (MCHR1 [4]): mostly inhibited
- PTX sensitivity of the inositol phosphate response, TGR342 (TGR342 [5]; [7]): insensitive to PTX treatment
- inositol phosphate levels in TGR342-transfected cells (TGR342 [5]; [8]): increased levels; also recorded: increased the production of inositol phosphate

Compound: α-MSH: the functional MCH antagonist
- TGR342 agonist activity at 1 μM (TGR342 [1]): inactive as an agonist
- effect on intracellular calcium levels (peptide library screen) (TGR342 [1]): Neither somatostatin nor α-MSH showed any detectable effect

Compound: [Phe^13, Tyr^19]-MCH
- TGR342 agonist activity of MCH-related peptides (TGR342 [1]): activates
- activation of MCHR1 (known) (MCHR1 [6]): bind and activate

Compound: somatostatin-14
- TGR342 agonist activity at 1 μM (TGR342 [1]): None of these peptides exhibited activity

Compound: Nc1ncnc2c1ncn2[C@@H]1O[C@H](COP(=O)(O)OP(=O)(O)O)[C@@H](O)[C@H]1O [ADP]
- PTX sensitivity of the Ca^2+ response through endogenous Gq receptors (endogenous Gq receptors): resistant

Compound: cortistatin-14 (PCKNFFWKTFSSCK; ends and bridges not checked; cysteine pairing not given here; UniProt Q62949 99-112, looked up) [peptide structurally very similar to somatostatin]
- TGR342 agonist activity at 1 μM (TGR342 [1]): None of these peptides exhibited activity

Compound: somatostatin-28
- TGR342 agonist activity at 1 μM (TGR342 [1]): None of these peptides exhibited activity

Compound: neuropeptide GE: peptide from the same MCH precursor (GSVAFPAENGVQNTESTQE; Neuropeptide-glycine-glutamic acid; UniProt P20382 110-128, looked up)
- TGR342 agonist activity of MCH-related peptides (TGR342 [1]): inactive

Compound: neuropeptide-EI: peptide from the same MCH precursor (EIGDEENSAKFPI; ends and bridges not checked; UniProt P20382 131-143, looked up)
- TGR342 agonist activity of MCH-related peptides (TGR342 [1]): inactive
